Consider five compounds from publication PMC12673918, “Design, Synthesis, and Selective Antiproliferative Activity of Indolizine Derivatives as Microtubule Destabilizers” (Archiv Der Pharmazie, 2025).

For experiment [1], the system named is tubulin. Also noted: method as in PMID 37895970. To be noted: read-out: IC50 for tubulin destabilization (literature); cited from earlier work.
The next experiment concerns CAL‐27 (oral carcinoma). The experiment can be described thus: Resazurin cell viability assay, CAL‐27. Format: cell-based. Conditions: Homo sapiens, CAL-27. The method in brief:
(§1)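 Cells in DMEM/10% FBS, 1 × 10^3 per well, adhered overnight, then treated with compounds (0–50 µM) for 72 h. Viability read as fluorescence (ex 530, em 590 nm) after 4 h with 44 µM resazurin. % growth inhibition at 50 µM and IC50 by nonlinear regression, triplicates.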
(The colour change of resazurin is a common sign of viable cells or microbes.)

Another experiment relates to BT‐20 (breast carcinoma). The experiment can be described thus: Resazurin cell viability assay, BT‐20. Format: cell-based. Conditions: Homo sapiens, BT-20. The method in brief: as §1
Experiment [2] has as its system tubulin. The experiment is described as follows: Tubulin polymerization (inhibition) assay kit. Type of experiment: biochemical. To be noted: for IC50: n = 2. Here is the method: To evaluate the effect of the compounds on tubulin polymerization, the Tubulin Polymerization Assay Kit (Cytoskeleton Inc.) was used according to the manufacturer's instructions. Briefly, 5 µL of the compounds (final concentration ranging from 0.1 to 100 µM) were pipetted per well into a pre‐warmed 96‐well black‐bottom plate at 37°C. After 1 min, 55 µL of the tubulin reaction mix (1X Buffer 1, 0.7X Tubulin Glycerol Buffer, 1 mM GTP, and 2 mg/mL tubulin) was added to each well. Next, after 5 s of shaking, fluorescence detection (excitation: 340–360 nm, emission: 410–460 nm) was performed using a microplate fluorimeter. […] Data were plotted, and IC₅₀ values were determined by nonlinear regression using GraphPad Prism software 9.0.
^c Tubulin polymerization was evaluated using a commercial assay kit, following standard procedures. Compounds were incubated with tubulin, and fluorescence was measured over time to generate kinetic curves and determine the maximum polymerization rate (Vmax). These experiments were carried out in duplicate.

The test system of experiment [3] is HGC‐27 (gastric carcinoma). The experiment is described as follows: Resazurin cell viability assay, HGC‐27. Format: cell-based. Conditions: Homo sapiens, HGC-27. The method in brief: as §1
The subject of experiment [4] is BT‐20 breast cancer cells. The experiment is described as follows: Cell‐cycle assay by flow cytometry. Type of experiment: cell-based. To be noted: 2.5 µM, 24 h. Here is the method:
BT‐20 cells were seeded in 10 cm plates (1.5 × 10⁶ cells/plate) and incubated at 37°C with 5% CO₂ for 24 h. Subsequently, the cells were treated with different compounds at a concentration of 2.5 µM for 24 h. After treatment, the cells were collected by centrifugation and fixed in cold 70% ethanol for 1 h at 4°C. The cells were then washed, collected by centrifugation, and treated with RNase A (100 μg/mL, Sigma‐Aldrich) for 30 min at 37°C, followed by staining with propidium iodide (50 μg/mL) for 15 min at 37°C. Finally, the percentages of cells in each phase of the cell cycle were determined using FACSCalibur flow cytometry (BD Biosciences—San Jose, CA, USA). Cell‐cycle distribution was analyzed using ModFit LT V3.3 software.

Experiment [5] relates to MKN‐45 (gastric carcinoma) cells. To be noted: cited from earlier work.
The test system of experiment [6] is OHMF (non‐tumoral oral fibroblast). The experiment can be described thus: Resazurin cell viability assay, OHMF fibroblasts. Type of experiment: cell-based. Conditions: Homo sapiens, 72 h, n = 3. As for the experimental part: The tongue squamous cell carcinoma cell line CAL‐27 (ATCC CRL‐2095), breast carcinoma BT‐20 (ATCC HTB‐19), gastric carcinoma HGC‐27 (BCRJ Code 0310), and normal oral fibroblast OHMF (culture of fibroblasts derived from human oral healthy mucosa, approved by the Research Ethics Committee of the University of São Paulo, Campus of Ribeirão Preto, Brazil (with protocol number 049) were cultured in DMEM medium (DMEM, Sigma‐Aldrich, St. Louis, MO, USA) supplemented with 10% fetal bovine serum and a solution of penicillin (100 U/mL) and streptomycin (100 μg/mL). The cultures were maintained in a humidified incubator with 5% CO₂ at 37°C.
Cell viability was analyzed using the resazurin assay. For this, cells were seeded in 96‐well plates (1 × 10^3 cells per well) and incubated at 37°C with 5% CO₂ overnight for cell adhesion. Subsequently, the cells were treated with different compounds (0–50 µM) for 72 h. After treatment, the medium was replaced with phenol‐free DMEM medium (Sigma‐Aldrich) containing resazurin at a concentration of 44 µM (Sigma‐Aldrich). After incubation for 4 h at 37°C, fluorescence detection was performed (excitation 530/25 nm, emission 590/35 nm) using a microplate fluorimeter (Synergy 2, Biotek). Initial cell growth inhibition assays were performed in triplicate or quadruplicate, while IC50 determinations were conducted in triplicate. Data were plotted, and IC₅₀ values were determined by nonlinear regression using GraphPad Prism software 9.0.

In another experiment the test system is GNP15. The experiment is described as follows: Resazurin cellular growth inhibition, GNP15. Format: cell-based. Conditions: 72 hours, triplicate; read-out: IC50 (nM, Cellular growth inhibition) GNP15 (supplement). Here is the method:
^b IC50 values were determined using the same resazurin-based assay, with fluorescence measurements performed after 72 hours of treatment. These experiments were carried out in triplicate.

The test system of experiment [7] is stomach carcinoma cell line (NUGC3). The arrangement: method as in PMID 15293996, PMID 23237054. Conditions: cited from earlier work.
Setting [8] is: 72 h, mean ± SD, n = 3, read-out: IC50 (nM) CAL‐27.
Setting [9] is: 72 hours, triplicate, read-out: IC50 (nM, Cellular growth inhibition) CAL-27 (supplement).
Setting [10] is: 72 h, mean ± SD, n = 3, read-out: IC50 (nM) BT‐20.
[11] abbreviates: 72 hours, triplicate, read-out: IC50 (nM, Cellular growth inhibition) BT-20 (supplement).
The mark [12] stands for this setting: 72 h, mean ± SD, n = 3, read-out: IC50 (nM) HGC‐27.
Where [13] appears, read: 72 hours, triplicate, read-out: IC50 (nM, Cellular growth inhibition) HGC-27 (supplement).

Like-named read-outs stand apart in the source and are kept apart here.

Consider `COc1ccc(N(C)c2nc(C)nc3ccccc23)cc1` [Verubulin, reference compound], for which the IC50 (commonly the concentration that inhibits the measured activity by half) in the experiment with tubulin [1] is 3200 ± 700 nM; in the experiment with CAL‐27 (oral carcinoma) (setting [8]) it was 2 ± 0.3 nM; in the experiment with CAL‐27 (oral carcinoma) (setting [9]), 3 ± 0.4 nM; with BT‐20 (breast carcinoma) (setting [10]), 5 ± 0.7 nM; in the experiment with BT‐20 (breast carcinoma) (setting [11]), 2 ± 0.3 nM; with tubulin [2] it was 3.2 µM. Moreover, the IC50 in experiment [3] (setting [12]) was found to be 3 ± 0.4 nM; in [3] (setting [13]) it was 5 ± 0.7 nM.

Regarding `COc1ccc2c(C(=O)c3cc(OC)c(OC)c(OC)c3)ccn2c1` [Compound 7f, (6‐methoxyindolizin‐1‐yl)(3,4,5‐trimethoxyphenyl)methanone], the inhibition (commonly the relative decrease from the control value, in per cent) at 50 µM in the experiment on CAL‐27 (oral carcinoma) (72 h, mean ± SD, n = 3, read-out: % Cellular growth inhibition (at 50 µM) CAL‐27) is 58 ± 1.3%; in the experiment with BT‐20 (breast carcinoma) (72 h, mean ± SD, n = 3, read-out: % Cellular growth inhibition (at 50 µM) BT‐20) it was 43 ± 0.8%; in experiment [3] (72 h, mean ± SD, n = 3, read-out: % Cellular growth inhibition (at 50 µM) HGC‐27) it was 43 ± 0.7%. The IC50 in the experiment with CAL‐27 (oral carcinoma) (setting [8]) is 105 ± 21 nM; in the experiment on CAL‐27 (oral carcinoma) (setting [9]), 475 ± 105 nM; in experiment [5] (MKN‐45 gastric cancer cells), 80 nM; with BT‐20 (breast carcinoma) (setting [10]), 111 ± 28 nM; in the experiment on BT‐20 (breast carcinoma) (setting [11]), 105 ± 21 nM; with tubulin [2], 14.8 µM. The IC50 in [6] was more than 50000 nM; with GNP15, more than 50000 nM; in [3] (setting [12]), 475 ± 105 nM; in experiment [3] (setting [13]), 111 ± 28 nM. The “cell‐cycle distribution” value in [4] is given as “significant accumulation of cells in the G2/M phase”.

`COc1ccc(/C=C\c2cc(OC)c(OC)c(OC)c2)cc1O` [Combretastatin A-4, combretastatin A‐4]: the “growth inhibitory activity against NUGC3” value in experiment [7] was “no appreciable effect”.

As for `CC(=O)O[C@H]1C(=O)[C@@]2(C)[C@H]([C@H](OC(=O)c3ccccc3)[C@]3(O)C[C@H](OC(=O)[C@H](O)[C@@H](NC(=O)c4ccccc4)c4ccccc4)C(C)=C1C3(C)C)[C@]1(OC(C)=O)CO[C@@H]1C[C@@H]2O` [Paclitaxel, reference compound], the inhibition at 2 µM with CAL‐27 (oral carcinoma) (2 μM, 72 h, mean ± SD, read-out: % Cellular growth inhibition CAL‐27, positive control) was 54 ± 1.2%; with BT‐20 (breast carcinoma) (2 μM, 72 h, mean ± SD, read-out: % Cellular growth inhibition BT‐20, positive control), 50 ± 1%; in [3] (2 μM, 72 h, mean ± SD, read-out: % Cellular growth inhibition HGC‐27, positive control) it was 46 ± 1.8%. Moreover, the inhibition at 50 µM in the experiment with CAL‐27 (oral carcinoma) (72 hours, triplicate, read-out: % Cellular growth inhibition (at 50 µM) CAL-27 (supplement)) turned out to be 54 ± 1.2%; in the experiment with BT‐20 (breast carcinoma) (72 hours, triplicate, read-out: % Cellular growth inhibition (at 50 µM) BT-20 (supplement)), 50 ± 1%; in [3] (72 hours, triplicate, read-out: % Cellular growth inhibition (at 50 µM) HGC-27 (supplement)), 46 ± 1.8%. For the same compound, the IC50 in the experiment with CAL‐27 (oral carcinoma) (setting [8]) was found to be 3 ± 0.6 nM; in the experiment on CAL‐27 (oral carcinoma) (setting [9]), 5 ± 1.4 nM; in the experiment on BT‐20 (breast carcinoma) (setting [10]), 45 ± 7 nM; in the experiment with BT‐20 (breast carcinoma) (setting [11]), 2 ± 0.1 nM; in the experiment on tubulin [2], 8.2 µM; in experiment [3] (setting [12]) it was 48 ± 16 nM. In addition, in [3] (setting [13]), the IC50 was found to be 4 ± 1.1 nM. Moreover, in the experiment with tubulin [2] (compounds 5 µM, vs control and paclitaxel), the “effect on tubulin polymerization curves (RFU)” value was “promoted rapid and sustained polymerization”.

For `COc1ccc2c(C(=O)c3cc(OC)c(OC)c(OC)c3)c[nH]c2c1` [BPR0L075, reference compound], the IC50 in the experiment on CAL‐27 (oral carcinoma) (setting [8]) came out at 2 ± 0.1 nM; in the experiment with CAL‐27 (oral carcinoma) (setting [9]), 48 ± 16 nM; in the experiment on BT‐20 (breast carcinoma) (setting [10]), 4 ± 1.1 nM; in the experiment with BT‐20 (breast carcinoma) (setting [11]) it was 3 ± 0.6 nM; in [3] (setting [12]) it was 5 ± 1.4 nM; in experiment [3] (setting [13]), 45 ± 7 nM. Further, the “fold improvement in antiproliferative activity over combretastatin A‐4” value in experiment [5] (MKN‐45 cells) is given as more than 10 fold. Besides, the “growth inhibitory activity against NUGC3” value in experiment [7] was “demonstrated growth inhibitory activity”.
